US20260028365A1 (BIOGEN MA INC., priority 2022, published 2026)
Where two headings read alike, the source gives them in different places.

Columns and labels:
[1] = molecular target: JAK2 (Homo sapiens (Human), UniProt O60674); experiment: pSTAT5 Cell Assay (MSD, TF1 cells); assay type: cell-based
In short: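 Serum-starved TF1 cells were pretreated with compound for 1 h (10-point four-fold series from 10 μM), then stimulated with 30 ng/mL IL-3 for 15 min. pSTAT5 in lysates was measured by MSD immunoassay. IC50 came from a 4-parameter logistic fit.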

[2] = molecular target: Tyk2 (Homo sapiens (Human), UniProt P29597); experiment: pSTAT4 Cell Assay (MSD, NK92 cells); assay type: cell-based
[3] = molecular target: JAK1 (Homo sapiens (Human), UniProt P23458); experiment: pSTAT3 Cell Assay (MSD, TF1 cells); assay type: cell-based
In short: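 IC50 values reflect 4-parameter logistic fits of normalized pSTAT3 signal, measured by MSD in lysed TF1 cells. Cells were serum-starved and treated with compound for 1 h (top concentration 10 μM) before a 15 min IL-6 challenge.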

[4] = molecular target: JH2 domain of human Tyk2 (Homo sapiens (Human), UniProt P29597); experiment: JH2 Biochemical Assay (TR-FRET probe displacement); assay type: binding
[5] = JH2 domain of human Tyk2, TR-FRET probe displacement
[6] = TR-FRET probe displacement, JH2 domain of human Tyk2

JAK1, sequence (P23458 whole entry): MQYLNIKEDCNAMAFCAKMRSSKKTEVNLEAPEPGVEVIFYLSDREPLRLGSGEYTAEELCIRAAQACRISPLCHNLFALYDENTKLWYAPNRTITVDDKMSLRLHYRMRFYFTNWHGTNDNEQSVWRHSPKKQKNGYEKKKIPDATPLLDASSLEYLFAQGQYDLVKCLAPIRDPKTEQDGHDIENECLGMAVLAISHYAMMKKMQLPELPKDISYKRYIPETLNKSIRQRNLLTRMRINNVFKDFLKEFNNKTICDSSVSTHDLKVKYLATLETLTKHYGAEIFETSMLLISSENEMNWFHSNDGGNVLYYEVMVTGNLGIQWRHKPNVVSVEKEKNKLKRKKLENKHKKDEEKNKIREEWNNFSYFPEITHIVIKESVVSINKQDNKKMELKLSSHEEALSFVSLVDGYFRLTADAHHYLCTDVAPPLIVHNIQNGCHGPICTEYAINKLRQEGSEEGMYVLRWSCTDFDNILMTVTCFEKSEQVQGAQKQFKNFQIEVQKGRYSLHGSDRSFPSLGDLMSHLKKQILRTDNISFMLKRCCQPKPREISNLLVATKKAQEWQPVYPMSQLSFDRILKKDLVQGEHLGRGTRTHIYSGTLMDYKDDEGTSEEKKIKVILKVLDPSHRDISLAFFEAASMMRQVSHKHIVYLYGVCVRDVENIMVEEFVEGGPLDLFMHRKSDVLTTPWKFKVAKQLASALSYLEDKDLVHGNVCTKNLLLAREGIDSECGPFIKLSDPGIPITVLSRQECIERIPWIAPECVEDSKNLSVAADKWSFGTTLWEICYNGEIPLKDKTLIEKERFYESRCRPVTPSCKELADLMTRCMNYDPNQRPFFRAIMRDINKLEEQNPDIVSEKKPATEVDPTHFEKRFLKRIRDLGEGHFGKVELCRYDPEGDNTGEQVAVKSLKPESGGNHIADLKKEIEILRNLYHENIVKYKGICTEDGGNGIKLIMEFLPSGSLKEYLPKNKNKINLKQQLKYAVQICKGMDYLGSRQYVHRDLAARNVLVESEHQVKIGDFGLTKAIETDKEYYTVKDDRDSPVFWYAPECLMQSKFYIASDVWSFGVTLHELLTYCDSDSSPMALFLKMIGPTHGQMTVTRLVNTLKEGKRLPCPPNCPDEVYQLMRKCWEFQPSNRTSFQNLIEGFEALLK
JH2 domain of human Tyk2, sequence (P29597 575-876): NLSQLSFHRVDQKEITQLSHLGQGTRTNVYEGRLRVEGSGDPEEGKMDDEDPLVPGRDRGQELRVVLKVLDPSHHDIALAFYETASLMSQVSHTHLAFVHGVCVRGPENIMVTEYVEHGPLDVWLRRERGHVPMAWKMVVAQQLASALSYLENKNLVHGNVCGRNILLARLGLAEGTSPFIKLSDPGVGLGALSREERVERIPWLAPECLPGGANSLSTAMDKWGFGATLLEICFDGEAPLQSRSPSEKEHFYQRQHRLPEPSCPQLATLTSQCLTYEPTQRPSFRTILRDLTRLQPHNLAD
Tyk2, sequence (P29597 whole entry): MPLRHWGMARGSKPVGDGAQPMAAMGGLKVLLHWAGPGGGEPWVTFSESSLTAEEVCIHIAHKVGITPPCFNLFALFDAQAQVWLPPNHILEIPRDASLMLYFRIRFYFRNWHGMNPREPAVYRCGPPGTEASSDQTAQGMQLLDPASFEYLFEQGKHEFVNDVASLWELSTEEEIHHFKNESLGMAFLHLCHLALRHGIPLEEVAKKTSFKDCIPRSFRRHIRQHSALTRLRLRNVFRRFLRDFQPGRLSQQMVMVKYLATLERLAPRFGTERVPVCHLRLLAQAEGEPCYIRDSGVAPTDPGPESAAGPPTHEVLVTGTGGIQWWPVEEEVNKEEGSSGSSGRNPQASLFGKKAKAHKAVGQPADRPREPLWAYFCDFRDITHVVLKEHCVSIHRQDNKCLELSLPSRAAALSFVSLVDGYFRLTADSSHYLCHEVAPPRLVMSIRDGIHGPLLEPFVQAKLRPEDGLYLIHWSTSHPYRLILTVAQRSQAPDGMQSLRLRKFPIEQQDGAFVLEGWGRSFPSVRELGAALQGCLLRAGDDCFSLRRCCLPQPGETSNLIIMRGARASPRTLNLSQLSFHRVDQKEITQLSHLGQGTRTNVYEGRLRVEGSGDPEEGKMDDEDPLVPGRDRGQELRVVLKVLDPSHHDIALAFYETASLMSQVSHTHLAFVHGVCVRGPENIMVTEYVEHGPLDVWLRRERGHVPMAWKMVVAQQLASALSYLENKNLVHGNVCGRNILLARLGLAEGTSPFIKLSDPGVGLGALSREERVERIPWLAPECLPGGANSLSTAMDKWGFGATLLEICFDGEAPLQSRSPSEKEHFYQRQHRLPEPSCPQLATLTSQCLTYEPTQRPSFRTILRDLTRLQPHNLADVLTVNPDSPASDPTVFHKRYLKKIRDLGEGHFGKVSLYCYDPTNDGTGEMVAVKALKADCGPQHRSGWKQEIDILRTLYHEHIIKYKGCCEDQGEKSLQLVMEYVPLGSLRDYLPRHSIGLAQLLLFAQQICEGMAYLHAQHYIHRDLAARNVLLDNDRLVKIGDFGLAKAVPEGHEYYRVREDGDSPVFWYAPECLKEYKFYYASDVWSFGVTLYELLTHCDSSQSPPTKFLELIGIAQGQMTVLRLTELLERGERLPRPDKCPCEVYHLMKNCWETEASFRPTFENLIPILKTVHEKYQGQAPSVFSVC
JAK2, sequence (O60674 whole entry): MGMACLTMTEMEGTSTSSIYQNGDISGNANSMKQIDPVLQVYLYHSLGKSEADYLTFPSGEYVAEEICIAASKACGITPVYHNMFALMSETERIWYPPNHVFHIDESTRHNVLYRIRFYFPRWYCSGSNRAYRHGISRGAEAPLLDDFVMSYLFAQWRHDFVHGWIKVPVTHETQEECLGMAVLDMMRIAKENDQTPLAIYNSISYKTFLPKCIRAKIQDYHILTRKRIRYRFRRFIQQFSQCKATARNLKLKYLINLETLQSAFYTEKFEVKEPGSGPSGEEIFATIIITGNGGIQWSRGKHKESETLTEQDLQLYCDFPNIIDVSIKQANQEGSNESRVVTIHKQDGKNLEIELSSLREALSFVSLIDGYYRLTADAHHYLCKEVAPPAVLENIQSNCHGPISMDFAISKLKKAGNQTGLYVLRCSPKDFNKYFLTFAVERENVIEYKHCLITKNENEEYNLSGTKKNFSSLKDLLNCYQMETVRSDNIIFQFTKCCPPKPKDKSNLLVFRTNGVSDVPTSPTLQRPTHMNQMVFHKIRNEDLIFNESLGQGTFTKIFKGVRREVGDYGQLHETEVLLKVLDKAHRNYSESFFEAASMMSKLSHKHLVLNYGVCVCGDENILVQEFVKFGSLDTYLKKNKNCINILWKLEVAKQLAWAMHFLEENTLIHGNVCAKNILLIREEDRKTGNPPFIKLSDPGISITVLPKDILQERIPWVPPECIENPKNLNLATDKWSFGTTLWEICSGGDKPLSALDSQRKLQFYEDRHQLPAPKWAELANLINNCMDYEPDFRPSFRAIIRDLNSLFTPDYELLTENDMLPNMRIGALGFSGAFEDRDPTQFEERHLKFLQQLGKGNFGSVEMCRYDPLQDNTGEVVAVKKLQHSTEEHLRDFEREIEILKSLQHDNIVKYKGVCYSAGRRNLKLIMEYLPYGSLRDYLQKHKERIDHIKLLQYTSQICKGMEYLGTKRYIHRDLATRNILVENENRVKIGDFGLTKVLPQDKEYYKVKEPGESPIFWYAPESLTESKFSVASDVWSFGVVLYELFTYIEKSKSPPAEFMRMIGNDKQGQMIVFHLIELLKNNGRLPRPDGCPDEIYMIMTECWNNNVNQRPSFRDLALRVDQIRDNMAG

Row | SMILES | IC50 ([1]; IL-3 stimulated, MSD) [nM] | IC50 ([2]; MSD) [nM] | IC50 ([3]; IL-6 stimulated, MSD) [nM] | IC50 [4, 5] [nM] | IC50 ([1]; IL-3 stimulation, MSD) [nM] | IC50 ([3]; IL-6 stimulation, MSD) [nM] | IC50 [4, 6] [nM] | IC50 ([1]; IL-3 stimulated) [nM] | IC50 [2] [nM] | IC50 ([3]; IL-6 stimulated) [nM] | IC50 ([4]; TR-FRET probe displacement, JH2 domain) [nM]
1 | CC(=O)Nc1cc(Nc2cc(C)nc(C(C)(F)F)n2)c(OC[C@H]2C[C@@H]2F)cn1 (racemic) [Example 426, Trans-rac-N-(4-((2-(1,1-difluoroethyl)-6-methylpyrimidin-4-yl)amino)-5-((2-fluorocyclopropyl)methoxy)pyridin-2-yl)acetamide] | ≥ 1000 | ≤ 10 | ≥ 1000 | ≤ 10 | – | – | – | – | – | – | –
2 | CC(=O)Nc1cc(Nc2ccnc(C(C)(F)F)n2)c(-c2nnc(C(C)(C)C)s2)cn1 [Example 715, N-(5-(5-(tert-butyl)-1,3,4-thiadiazol-2-yl)-4-((2-(1,1-difluoroethyl)pyrimidin-4-yl)amino)pyridin-2-yl)acetamide] | ≥ 1000 | ≤ 10 | ≥ 1000 | ≤ 10 | – | – | – | – | – | – | –
3 | [2H]C([2H])([2H])C([2H])([2H])Oc1cnc(NC(C)=O)cc1Nc1cc(CC)nc(C(C)(F)F)n1 [Example 515, N-(4-((2-(1,1-difluoroethyl)-6-ethylpyrimidin-4-yl)amino)-5-(ethoxy-d5)pyridin-2-yl)acetamide] | ≥ 1000 | 10 to 100 | ≥ 1000 | ≤ 10 | – | – | – | – | – | – | –
4 | CC(=O)Nc1cc(Nc2cc(C)nc(C(C)(C)F)n2)c(-c2cc(C)ncn2)cn1 [Example 200, N-(4-((2-(2-fluoropropan-2-yl)-6-methylpyrimidin-4-yl)amino)-5-(6-methylpyrimidin-4-yl)pyridin-2-yl)acetamide] | – | 10 to 100 | – | – | ≥ 1000 | ≥ 1000 | ≤ 10 | – | – | – | –
5 | [2H]C([2H])(C)Oc1cnc(NC(C)=O)cc1Nc1cc(C(C)C)nc(C(C)(F)F)n1 [Example 364, N-(4-((2-(1,1-difluoroethyl)-6-isopropylpyrimidin-4-yl)amino)-5-(ethoxy-1,1-d2)pyridin-2-yl)acetamide] | – | 10 to 100 | – | – | ≥ 1000 | ≥ 1000 | ≤ 10 | – | – | – | –
6 | CC(=O)Nc1cc(Nc2cc(C)nc(C(C)(F)F)n2)c(OC(C)C)cn1 [Example 39, N-(4-((2-(1,1-difluoroethyl)-6-methylpyrimidin-4-yl)amino)-5-isopropoxypyridin-2-yl)acetamide] | – | 10 to 100 | – | – | ≥ 1000 | ≥ 1000 | ≤ 10 | – | – | – | –
7 | CC(=O)Nc1cc(Nc2cc(C)nc(C(C)(F)F)n2)c(-c2nc3c(s2)CN(C)CC3)cn1 [Example 238, N-(4-((2-(1,1-difluoroethyl)-6-methylpyrimidin-4-yl)amino)-5-(5-methyl-4,5,6,7-tetrahydrothiazolo[5,4-c]pyridin-2-yl)pyridin-2-yl)acetamide] | – | ≤ 10 | – | – | ≥ 1000 | ≥ 1000 | ≤ 10 | – | – | – | –
8 | COCCOc1cnc(NC(C)=O)cc1Nc1cc(OC(C)C)nc(C(C)(F)F)n1 [Example 76, N-(4-((2-(1,1-difluoroethyl)-6-isopropoxypyrimidin-4-yl)amino)-5-(2-methoxyethoxy)pyridin-2-yl)acetamide] | – | ≤ 10 | – | – | ≥ 1000 | ≥ 1000 | ≤ 10 | – | – | – | –
9 | CCOc1cnc(NC(C)=O)cc1Nc1cc(CC)nc(C(C)(F)F)n1 [Example 12, N-(4-((2-(1,1-difluoroethyl)-6-ethylpyrimidin-4-yl)amino)-5-ethoxypyridin-2-yl)acetamide] | – | 10 to 100 | – | – | ≥ 1000 | ≥ 1000 | ≤ 10 | – | – | – | –
10 | COCCOc1ccc(-c2cnc(NC(C)=O)cc2Nc2cc(C)nc(C(C)(F)F)n2)nc1 [Example 522, N-(4′-((2-(1,1-difluoroethyl)-6-methylpyrimidin-4-yl)amino)-5-(2-methoxyethoxy)-[2,3′-bipyridin]-6′-yl)acetamide] | ≥ 1000 | ≤ 10 | ≥ 1000 | ≤ 10 | – | – | – | – | – | – | –
11 | CCc1cc(Nc2cc(NC(C)=O)ncc2OCCOC)nc(C(C)(F)F)n1 [Example 20, N-(4-((2-(1,1-difluoroethyl)-6-ethylpyrimidin-4-yl)amino)-5-(2-methoxyethoxy)pyridin-2-yl)acetamide] | – | ≤ 10 | – | – | ≥ 1000 | ≥ 1000 | ≤ 10 | – | – | – | –
12 | COCCOc1cnc(NC(C)=O)cc1Nc1cc(OC2CC2)nc(C(C)(C)F)n1 [Example 446, N-(4-((6-cyclopropoxy-2-(2-fluoropropan-2-yl)pyrimidin-4-yl)amino)-5-(2-methoxyethoxy)pyridin-2-yl)acetamide] | ≥ 1000 | ≤ 10 | ≥ 1000 | ≤ 10 | – | – | – | – | – | – | –
13 | CC(=O)Nc1cc(Nc2cc(C)nc(C(C)(F)F)n2)c(-c2cc(C(F)F)ncn2)cn1 [Example 246, N-(4-((2-(1,1-difluoroethyl)-6-methylpyrimidin-4-yl)amino)-5-(6-(difluoromethyl)pyrimidin-4-yl)pyridin-2-yl)acetamide] | – | 10 to 100 | – | – | ≥ 1000 | ≥ 1000 | ≤ 10 | – | – | – | –
14 | COCc1cnc(-c2cnc(NC(C)=O)cc2Nc2cc(C)nc(C(C)(F)F)n2)cn1 [Example 834, N-(4-((2-(1,1-difluoroethyl)-6-methylpyrimidin-4-yl)amino)-5-(5-(methoxymethyl)pyrazin-2-yl)pyridin-2-yl)acetamide] | – | – | – | – | – | – | – | ≥ 1000 | ≤ 10 | ≥ 1000 | ≤ 10
15 | COCc1ccc(-c2cnc(NC(C)=O)cc2Nc2cc(C)nc(C(C)(F)F)n2)nc1 [Example 634, N-(4′-((2-(1,1-difluoroethyl)-6-methylpyrimidin-4-yl)amino)-5-(methoxymethyl)-[2,3′-bipyridin]-6′-yl)acetamide] | ≥ 1000 | ≤ 10 | ≥ 1000 | ≤ 10 | – | – | – | – | – | – | –
16 | CC(=O)Nc1cc(Nc2cc(C)nc(C(C)(F)F)n2)c(-c2ccc(CN(C)C)cn2)cn1 [Example 648, N-(4′-((2-(1,1-difluoroethyl)-6-methylpyrimidin-4-yl)amino)-5-((dimethylamino)methyl)-[2,3′-bipyridin]-6′-yl)acetamide] | ≥ 1000 | ≤ 10 | ≥ 1000 | ≤ 10 | – | – | – | – | – | – | –
17 | CC(=O)Nc1cc(Nc2ccnc(C(C)(F)F)n2)c(-c2cnn(C(C)C)n2)cn1 [Example 708, N-(4-((2-(1,1-difluoroethyl)pyrimidin-4-yl)amino)-5-(2-isopropyl-2H-1,2,3-triazol-4-yl)pyridin-2-yl)acetamide] | ≥ 1000 | ≤ 10 | ≥ 1000 | ≤ 10 | – | – | – | – | – | – | –
18 | CCOc1cnc(NC(C)=O)cc1Nc1cc(OC2CC2)nc(C(C)(F)F)n1 [Example 490, N-(4-((6-cyclopropoxy-2-(1,1-difluoroethyl)pyrimidin-4-yl)amino)-5-ethoxypyridin-2-yl)acetamide] | ≥ 1000 | ≤ 10 | ≥ 1000 | ≤ 10 | – | – | – | – | – | – | –
19 | CC(=O)Nc1cc(Nc2cc(C)nc(C(C)(F)F)n2)c(OCC2CC2)cn1 [Example 11, N-(5-(cyclopropylmethoxy)-4-((2-(1,1-difluoroethyl)-6-methylpyrimidin-4-yl)amino)pyridin-2-yl)acetamide] | – | 10 to 100 | – | – | ≥ 1000 | ≥ 1000 | ≤ 10 | – | – | – | –
20 | CC(=O)Nc1cc(Nc2cc(C)nc(C(C)(F)F)n2)c(-c2ncccn2)cn1 [Example 668, N-(4-((2-(1,1-difluoroethyl)-6-methylpyrimidin-4-yl)amino)-5-(pyrimidin-2-yl)pyridin-2-yl)acetamide] | ≥ 1000 | ≤ 10 | ≥ 1000 | ≤ 10 | – | – | – | – | – | – | –
